Experimental data: patent US6914045B2, “Glycopeptide antibiotics” (Wyeth Holdings Corporation, priority 2001, dated 2005)

Tests used:
Test in all cases: in vitro antibacterial evaluation, MIC by broth dilution
Assay type in all cases: cell-based
[1] = tested on: Escherichia coli; conditions: 18 hours at 35° C.
[2] = tested on: Enterococcus sp.; conditions: broth dilution, 18 hours at 35° C.
Procedure, shortened: (§1)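 Broth dilution per NCCLS M7-A2 in Mueller-Hinton II medium, inoculum 5×10^5 CFU/mL, antibiotic range 64-0.06 μg/mL. MIC taken as lowest concentration inhibiting growth; Gram-positive panel includes recent clinical isolates resistant to methicillin, penicillin and/or vancomycin.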

[3] = tested on: Staphylococcus sp.; conditions: broth dilution, 18 hours at 35° C.; for MIC Staphylococcus aureus (ATCC 29213): strain ATCC 29213; for MIC Staphylococcus aureus (GC 1131): strain GC 1131; for MIC Staphylococcus aureus (GC 3051): strain GC 3051; for MIC Staphylococcus aureus (GC 3053): strain GC 3053; for MIC Staphylococcus aureus (GC 4541): strain GC 4541; for MIC Staphylococcus aureus (GC 4542): strain GC 4542; for MIC Staphylococcus aureus-SMITH (GC 4543): strain GC 4543; for MIC Staphylococcus aureus (GC 4544): strain GC 4544; for MIC Staphylococcus aureus (GC 4545): strain GC 4545; for MIC Staphylococcus haemolyticus (GC 4546): strain GC 4546; for MIC Coagulase Negative Staphylococcus (GC 4547): strain GC 4547; for MIC Coagulase Negative Staphylococcus (GC 4548): strain GC 4548; for MIC Coagulase Negative Staphylococcus (GC 4549): strain GC 4549; for MIC Coagulase Negative Staphylococcus (GC 4551): strain GC 4551
Procedure, shortened: as §1

[4] = tested on: Streptococcus sp.; conditions: broth dilution, 18 hours at 35° C.
Procedure, shortened: as §1

[5] = inoculum 5×10^5 CFU/mL, strain ATCC 29212
[6] = inoculum 5×10^5 CFU/mL, strain GC 2242
[7] = inoculum 5×10^5 CFU/mL, strain GC 2243
[8] = inoculum 5×10^5 CFU/mL, strain GC 2691
[9] = inoculum 5×10^5 CFU/mL, strain GC 3059
[10] = inoculum 5×10^5 CFU/mL, strain GC 4552
[11] = inoculum 5×10^5 CFU/mL, strain GC 4553
[12] = inoculum 5×10^5 CFU/mL, strain GC 4554
[13] = inoculum 5×10^5 CFU/mL, strain GC 4556
[14] = inoculum 5×10^5 CFU/mL, strain GC 4557
[15] = inoculum 5×10^5 CFU/mL, strain GC 4558
[16] = inoculum 5×10^5 CFU/mL, strain GC 6189
[17] = inoculum 5×10^5 CFU/mL, strain ATCC 6301
[18] = inoculum 5×10^5 CFU/mL, strain GC 1894
[19] = inoculum 5×10^5 CFU/mL, strain GC 4563
[20] = inoculum 5×10^5 CFU/mL, strain GC 4564
[21] = inoculum 5×10^5 CFU/mL, strain GC 4565

CCCCN1CC(C(O)C2NC(=O)C(C(O)C3CNC(=N)N3)NC(=O)C(Cc3ccc(OC4OC(CO)C(OC5OC6COC7(OC6C(O)C5O)C5CC6CC(C5)CC7C6)C(O)C4O)cc3)NC(=O)C(C(C)c3ccccc3)NC(=O)CNC(=O)C(CO)NC2=O)N(C2OC(CO)C(O)C(O)C2O)C1=N (stereo not drawn) [Example 224]
1 µg/mL: MIC Staphylococcus aureus (GC 4541) [3] | MIC Staphylococcus haemolyticus (GC 4546) [3] | MIC Coagulase Negative Staphylococcus (GC 4548) [3] | MIC Coagulase Negative Staphylococcus (GC 4549) [3]
4 µg/mL: MIC Enterococcus faecalis (ATCC 29212) [2] | MIC Enterococcus faecalis (GC 2242) [2] | MIC Enterococcus faecalis (GC 2691) [2] | MIC Enterococcus faecalis (GC 3059) [2] | MIC Enterococcus faecalis (GC 4552) [2] | MIC Enterococcus faecalis (GC 4554) [2] | MIC Enterococcus faecalis (GC 6189) [2] | MIC Enterococcus faecium (GC 4556) [2] | MIC Enterococcus faecalis (ATCC 29212) [2, 5] | MIC Enterococcus faecalis (GC 2242) [2, 6] | MIC Enterococcus faecalis (GC 2691) [2, 8] | MIC Enterococcus faecalis (GC 3059) [2, 9] | MIC Enterococcus faecalis (GC 4552) [2, 10] | MIC Enterococcus faecalis (GC 4554) [2, 12] | MIC Enterococcus faecium (GC 4556) [2, 13] | MIC Enterococcus faecalis (GC 6189) [2, 16] | MIC Staphylococcus aureus (GC 1131) [3] | MIC Staphylococcus aureus (GC 3053) [3] | MIC Staphylococcus aureus (GC 4542) [3] | MIC Staphylococcus aureus (GC 4544) [3]
<0.12 µg/mL: MIC Streptococcus agalactiae (GC 4564) [4] | MIC Streptococcus pneumoniae (GC 1894) [4] | MIC Streptococcus pneumoniae (GC 1894) [4, 18] | MIC Streptococcus agalactiae (GC 4564) [4, 20]
2 µg/mL: MIC Escherichia coli (GC 4560) [1] | MIC Enterococcus avium (GC 4558) [2] | MIC Enterococcus faecalis (GC 4553) [2] | MIC Enterococcus faecium (GC 2243) [2] | MIC Enterococcus faecium (GC 2243) [2, 7] | MIC Enterococcus faecalis (GC 4553) [2, 11] | MIC Enterococcus avium (GC 4558) [2, 15] | MIC Staphylococcus aureus (ATCC 29213) [3] | MIC Staphylococcus aureus (GC 3051) [3] | MIC Staphylococcus aureus-SMITH (GC 4543) [3] | MIC Staphylococcus aureus (GC 4545) [3] | MIC Coagulase Negative Staphylococcus (GC 4547) [3] | MIC Coagulase Negative Staphylococcus (GC 4551) [3]
0.25 µg/mL: MIC Streptococcus pneumoniae (ATCC 6301) [4] | MIC Streptococcus pneumoniae (GC 4565) [4] | MIC Streptococcus pyogenes (GC 4563) [4] | MIC Streptococcus pneumoniae (ATCC 6301) [4, 17] | MIC Streptococcus pyogenes (GC 4563) [4, 19] | MIC Streptococcus pneumoniae (GC 4565) [4, 21]
64 µg/mL: MIC Escherichia coli (GC 4559) [1]
128 µg/mL: MIC Escherichia coli (ATCC 25922) [1]
0.5 µg/mL: MIC Enterococcus faecium (GC 4557) [2] | MIC Enterococcus faecium (GC 4557) [2, 14]

CC(c1ccccc1)C1NC(=O)CNC(=O)C(CO)NC(=O)C(C(O)C2CNC(=N)N2C2OC(CO)C(O)C(O)C2O)NC(=O)C(C(O)C2CNC(=N)N2)NC(=O)C(Cc2ccc(OC3OC(CO)C(OC4OC5COC6(CC7CCC6(C)C7(C)C)OC5C(O)C4O)C(O)C3O)cc2)NC1=O (stereo not drawn) [Example 214]
0.5 µg/mL: MIC Staphylococcus aureus-SMITH (GC 4543) [3] | MIC Coagulase Negative Staphylococcus (GC 4549) [3]
64 µg/mL: MIC Escherichia coli (ATCC 25922) [1] | MIC Escherichia coli (GC 4559) [1]
2 µg/mL: MIC Escherichia coli (GC 4560) [1] | MIC Enterococcus avium (GC 4558) [2] | MIC Enterococcus faecalis (ATCC 29212) [2] | MIC Enterococcus faecalis (GC 2242) [2] | MIC Enterococcus faecalis (GC 2691) [2] | MIC Enterococcus faecalis (GC 3059) [2] | MIC Enterococcus faecalis (GC 4552) [2] | MIC Enterococcus faecalis (GC 4553) [2] | MIC Enterococcus faecalis (GC 4554) [2] | MIC Enterococcus faecalis (GC 6189) [2] | MIC Enterococcus faecium (GC 4556) [2] | MIC Enterococcus faecium (GC 4557) [2] | MIC Enterococcus faecalis (ATCC 29212) [2, 5] | MIC Enterococcus faecalis (GC 2242) [2, 6] | MIC Enterococcus faecalis (GC 2691) [2, 8] | MIC Enterococcus faecalis (GC 3059) [2, 9] | MIC Enterococcus faecalis (GC 4552) [2, 10] | MIC Enterococcus faecalis (GC 4553) [2, 11] | MIC Enterococcus faecalis (GC 4554) [2, 12] | MIC Enterococcus faecium (GC 4556) [2, 13] | MIC Enterococcus faecium (GC 4557) [2, 14] | MIC Enterococcus avium (GC 4558) [2, 15] | MIC Enterococcus faecalis (GC 6189) [2, 16] | MIC Staphylococcus aureus (ATCC 29213) [3] | MIC Staphylococcus aureus (GC 3053) [3] | MIC Staphylococcus aureus (GC 4541) [3] | MIC Staphylococcus aureus (GC 4545) [3]
32 µg/mL: MIC Staphylococcus aureus (GC 3051) [3]
<0.12 µg/mL: MIC Streptococcus agalactiae (GC 4564) [4] | MIC Streptococcus pneumoniae (ATCC 6301) [4] | MIC Streptococcus pneumoniae (GC 1894) [4] | MIC Streptococcus pneumoniae (GC 4565) [4] | MIC Streptococcus pyogenes (GC 4563) [4] | MIC Streptococcus pneumoniae (ATCC 6301) [4, 17] | MIC Streptococcus pneumoniae (GC 1894) [4, 18] | MIC Streptococcus pyogenes (GC 4563) [4, 19] | MIC Streptococcus agalactiae (GC 4564) [4, 20] | MIC Streptococcus pneumoniae (GC 4565) [4, 21]
1 µg/mL: MIC Enterococcus faecium (GC 2243) [2] | MIC Enterococcus faecium (GC 2243) [2, 7] | MIC Staphylococcus aureus (GC 1131) [3] | MIC Staphylococcus aureus (GC 4542) [3] | MIC Staphylococcus aureus (GC 4544) [3] | MIC Staphylococcus haemolyticus (GC 4546) [3] | MIC Coagulase Negative Staphylococcus (GC 4547) [3] | MIC Coagulase Negative Staphylococcus (GC 4548) [3] | MIC Coagulase Negative Staphylococcus (GC 4551) [3]
